Assay results published in US10519154B2, “7-substituted 1-pyridyl-naphthyridine-3-carboxylic acid amides and use thereof” (Bayer Pharma Aktiengesellschaft, priority 2016, dated 2019).

Target: T1, human M2 receptor (Homo sapiens, UniProt P08172)
T1 sequence (P08172 1-466): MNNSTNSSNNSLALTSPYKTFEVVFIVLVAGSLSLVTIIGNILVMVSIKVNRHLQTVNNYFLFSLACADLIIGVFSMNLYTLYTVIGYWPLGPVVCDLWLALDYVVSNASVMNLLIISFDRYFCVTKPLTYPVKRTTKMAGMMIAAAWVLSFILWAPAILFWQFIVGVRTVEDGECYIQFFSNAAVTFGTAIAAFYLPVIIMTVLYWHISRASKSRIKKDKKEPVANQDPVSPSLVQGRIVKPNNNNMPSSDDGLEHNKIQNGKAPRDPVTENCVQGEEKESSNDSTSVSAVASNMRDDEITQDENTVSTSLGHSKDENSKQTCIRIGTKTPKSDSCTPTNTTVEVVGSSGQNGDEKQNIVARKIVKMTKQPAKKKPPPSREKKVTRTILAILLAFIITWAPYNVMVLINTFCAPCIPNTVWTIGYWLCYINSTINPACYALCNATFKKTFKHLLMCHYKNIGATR
Assay: Functional M2-GIRK1/4 activation test: allosteric potency (EC50) and efficiency
Conditions: for EC50: Receptor activity EC50, CHO-DUKX-M2-GIRK cells, acetylcholine at EC20, in some cases mean of two or more determinations; for Emax: read-out: Efficiency, boosting of the acetylcholine effect at EC20 acetylcholine concentration

With `O=C(NC(c1ccccc1Cl)C(F)(F)F)c1cn(-c2ncc(F)cc2F)c2nc(N3C[C@@H](O)[C@H](O)C3)ccc2c1=O` (mixture of isomers) [Example 83, N-[1-(2-Chlorophenyl)-2,2,2-trifluoroethyl]-1-(3,5-difluoropyridin-2-yl)-7-[(3R,4R)-3,4-dihydroxypyrrolidin-1-yl]-4-oxo-1,4-dihydro-1,8-naphthyridine-3-carboxamide] the EC50 was 0.017 µM and the Emax (CHO-DUKX-M2-GIRK cells) was 100%.
Work on `CC(C)(C)[C@@H](NC(=O)c1cn(-c2ncc(F)cc2F)c2nc(N3C[C@@H](O)[C@H](O)C3)ccc2c1=O)C(F)(F)F` [Example 86, 1-(3,5-Difluoropyridin-2-yl)-7-[(3R,4R)-3,4-dihydroxypyrrolidin-1-yl]-4-oxo-N-[(2R)-1,1,1-trifluoro-3,3-dimethylbutan-2-yl]-1,4-dihydro-1,8-naphthyridine-3-carboxamide] yielded an EC50 of 0.019 µM and an Emax (CHO-DUKX-M2-GIRK cells) of 100%.
Work on `CC(NC(=O)c1cn(-c2ncc(F)cc2F)c2nc(N3CCC(CO)(CO)CC3)ccc2c1=O)C(F)(F)C(F)(F)F` (single isomer, unassigned) [Example 185, 7-[4,4-Bis(hydroxymethyl)piperidin-1-yl]-1-(3,5-difluoropyridin-2-yl)-4-oxo-N-[3,3,4,4,4-pentafluorobutan-2-yl]-1,4-dihydro-1,8-naphthyridine-3-carboxamide] yielded an EC50 of 0.121 µM and an Emax (CHO-DUKX-M2-GIRK cells) of 100%.
For `O=C(NC(c1ccccc1Cl)C(F)(F)F)c1cn(-c2ncc(F)cc2F)c2nc(N3CCNC3=O)ccc2c1=O` (racemic) [Example 147, N-[1-(2-Chlorophenyl)-2,2,2-trifluoroethyl]-1-(3,5-difluoropyridin-2-yl)-4-oxo-7-(2-oxoimidazolidin-1-yl)-1,4-dihydro-1,8-naphthyridine-3-carboxamide], the EC50 was 0.055 µM and the Emax (CHO-DUKX-M2-GIRK cells) was 98.5%.
`CC1C(=O)N(c2ccc3c(=O)c(C(=O)N[C@@H](C4CC4)C(F)(F)F)cn(-c4ncc(F)cc4F)c3n2)CC1O` (single isomer, unassigned) [Example 107] gave an EC50 of 0.097 µM and an Efficiency (boosting of the acetylcholine effect at EC20 acetylcholine concentration, CHO-DUKX-M2-GIRK cells) of 98.00%.
`O=C(NC1(C(F)(F)F)CCC1)c1cn(-c2ncc(F)cc2F)c2nc(N3CCNC3=O)ccc2c1=O` [Example 150, 1-(3,5-Difluoropyridin-2-yl)-4-oxo-7-(2-oxoimidazolidin-1-yl)-N-[1-(trifluoromethyl)cyclobutyl]-1,4-dihydro-1,8-naphthyridine-3-carboxamide] showed an EC50 of 0.375 µM and an Emax (CHO-DUKX-M2-GIRK cells) of 88%.
Compound `CC[C@@H](NC(=O)c1cn(-c2ncc(F)cc2Cl)c2nc(N3CCC(C)(O)C3)ccc2c1=O)C(F)(F)F` (mixture of isomers) [Example 49, 1-(3-Chloro-5-fluoropyridin-2-yl)-7-[3-hydroxy-3-methylpyrrolidin-1-yl]-4-oxo-N-[(2R)-1,1,1-trifluorobutan-2-yl]-1,4-dihydro-1,8-naphthyridine-3-carboxamide] has an EC50 of 0.56 µM and an Emax (CHO-DUKX-M2-GIRK cells) of 97%.
Work on `CC(C)(NC(=O)c1cn(-c2ncc(F)cc2F)c2nc(N3CC4(COC4)C3)ccc2c1=O)C(F)(F)C(F)(F)F` [Example 182, 1-(3,5-Difluoropyridin-2-yl)-7-(2-oxa-6-azaspiro[3.3]hept-6-yl)-4-oxo-N-(3,3,4,4,4-pentafluoro-2-methylbutan-2-yl)-1,4-dihydro-1,8-naphthyridine-3-carboxamide] yielded an EC50 of 0.41 µM and an Emax (CHO-DUKX-M2-GIRK cells) of 100%.
With `O=C(NC1CCC1)c1cn(-c2ncc(F)cc2F)c2nc(N3C[C@@H](O)[C@H](O)C3)ccc2c1=O` [Example 168, N-Cyclobutyl-1-(3,5-difluoropyridin-2-yl)-7-[(3R,4R)-3,4-dihydroxypyrrolidin-1-yl]-4-oxo-1,4-dihydro-1,8-naphthyridine-3-carboxamide] the EC50 was 2.85 µM and the Emax (CHO-DUKX-M2-GIRK cells) was 84.5%.
Compound `O=C(NC(c1cccc(F)c1)C(F)(F)F)c1cn(-c2ncccc2Cl)c2nc(N3C[C@@H](O)CC3=O)ccc2c1=O` (stereo partly drawn) [Example 23, 1-(3-Chloropyridin-2-yl)-7-[(4S)-4-hydroxy-2-oxopyrrolidin-1-yl]-4-oxo-N-[2,2,2-trifluoro-1-(3-fluorophenyl)ethyl]-1,4-dihydro-1,8-naphthyridine-3-carboxamide] has an EC50 of 0.145 µM and an Emax (CHO-DUKX-M2-GIRK cells) of 92%.
Work on `CC(C)(CC(F)(F)F)NC(=O)c1cn(-c2ncc(F)cc2F)c2nc(N3C[C@@H](O)CC3=O)ccc2c1=O` [Example 80, 1-(3,5-Difluoropyridin-2-yl)-7-[(4S)-4-hydroxy-2-oxopyrrolidin-1-yl]-4-oxo-N-(4,4,4-trifluoro-2-methylbutan-2-yl)-1,4-dihydro-1,8-naphthyridine-3-carboxamide] yielded an EC50 of 0.12 µM and an Emax (CHO-DUKX-M2-GIRK cells) of 100%.
For `CC[C@H](NC(=O)c1cn(-c2ncc(F)cc2F)c2nc(N3CC(O)C(C)C3=O)ccc2c1=O)C(F)(F)F` (mixture of isomers) [Example 108, 1-(3,5-Difluoropyridin-2-yl)-7-[4-hydroxy-3-methyl-2-oxopyrrolidin-1-yl]-4-oxo-N-[(2S)-1,1,1-trifluorobutan-2-yl]-1,4-dihydro-1,8-naphthyridine-3-carboxamide], the EC50 was 0.185 µM and the Emax (CHO-DUKX-M2-GIRK cells) was 84%.
`CC[C@@H](NC(=O)c1cn(-c2ncc(F)cc2F)c2nc(N3C[C@@H](O)[C@@H](O)C3)ccc2c1=O)C(F)(F)F` [Example 41, 1-(3,5-Difluoropyridin-2-yl)-7-[(3R,4S)-3,4-dihydroxypyrrolidin-1-yl]-4-oxo-N-[(2R)-1,1,1-trifluorobutan-2-yl]-1,4-dihydro-1,8-naphthyridine-3-carboxamide] gave an EC50 of 0.33 µM and an Emax (CHO-DUKX-M2-GIRK cells) of 100%.
In the case of `O=C(N[C@H](C1CC1)C(F)(F)F)c1cn(-c2ncccc2F)c2nc(N3CC4C[C@@]4(O)C3)ccc2c1=O` (single isomer, unassigned) [Example 136], the EC50 is reported as 0.064 µM and the Emax (CHO-DUKX-M2-GIRK cells) is reported as 97.5%.
Compound `CC(C)(NC(=O)c1cn(-c2ncc(F)cc2F)c2nc(N3CCCC[C@@H]3CO)ccc2c1=O)C(F)(F)C(F)(F)F` [Example 173, 1-(3,5-Difluoropyridin-2-yl)-7-[(2R)-2-(hydroxymethyl)piperidin-1-yl]-4-oxo-N-(3,3,4,4,4-pentafluoro-2-methylbutan-2-yl)-1,4-dihydro-1,8-naphthyridine-3-carboxamide] has an EC50 of 0.088 µM and an Emax (CHO-DUKX-M2-GIRK cells) of 100%.
In the case of `CC(C)(C)[C@H](NC(=O)c1cn(-c2ncc(F)cc2F)c2nc(N3CCNC3=O)ccc2c1=O)C(F)(F)F` [Example 100, 1-(3,5-Difluoropyridin-2-yl)-4-oxo-7-(2-oxoimidazolidin-1-yl)-N-[(2S)-1,1,1-trifluoro-3,3-dimethylbutan-2-yl]-1,4-dihydro-1,8-naphthyridine-3-carboxamide], the EC50 is reported as 0.026 µM and the Emax (CHO-DUKX-M2-GIRK cells) is reported as 100%.
Compound `CC[C@@H](NC(=O)c1cn(-c2ncc(F)cc2Cl)c2nc(N3C[C@@H](O)CC3=O)ccc2c1=O)C(F)(F)F` [Example 20, 1-(3-Chloro-5-fluoropyridin-2-yl)-7-[(4S)-4-hydroxy-2-oxopyrrolidin-1-yl]-4-oxo-N-[(2R)-1,1,1-trifluorobutan-2-yl]-1,4-dihydro-1,8-naphthyridine-3-carboxamide] has an EC50 of 0.33 µM and an Emax (CHO-DUKX-M2-GIRK cells) of 87%.
`CC[C@@H](NC(=O)c1cn(-c2ncc(F)cc2Cl)c2nc(N3CC4CC4(O)C3)ccc2c1=O)C(F)(F)F` (mixture of isomers) [Example 48, 1-(3-Chloro-5-fluoropyridin-2-yl)-7-[1-hydroxy-3-azabicyclo[3.1.0]hex-3-yl]-4-oxo-N-[(2R)-1,1,1-trifluorobutan-2-yl]-1,4-dihydro-1,8-naphthyridine-3-carboxamide] gave an EC50 of 0.074 µM and an Emax (CHO-DUKX-M2-GIRK cells) of 92.5%.
In the case of `CC(NC(=O)c1cn(-c2ncc(F)cc2F)c2nc(N3CCC[C@@H]3CO)ccc2c1=O)C(F)(F)C(F)(F)F` (single isomer, unassigned) [Example 175], the EC50 is reported as 0.06 µM and the Emax (CHO-DUKX-M2-GIRK cells) is reported as 98.5%.
`CC(C)C(NC(=O)c1cn(-c2ncc(F)cc2F)c2nc(N3CCNC3=O)ccc2c1=O)C(F)(F)F` (racemic) [Example 169, 1-(3,5-Difluoropyridin-2-yl)-4-oxo-7-(2-oxoimidazolidin-1-yl)-N-[1,1,1-trifluoro-3-methylbutan-2-yl]-1,4-dihydro-1,8-naphthyridine-3-carboxamide] was tested, and the EC50 was 0.12 µM and the Emax (CHO-DUKX-M2-GIRK cells) was 97.5%.
Compound `CC(NC(=O)c1cn(-c2ncc(F)cc2F)c2nc(N3C[C@@H](O)CC3=O)ccc2c1=O)C(F)(F)C(F)(F)F` (single isomer, unassigned) [Example 77] has an EC50 of 0.26 µM and an Emax (CHO-DUKX-M2-GIRK cells) of 100%.
In the case of `O=C(NC12CC(F)(C1)C2)c1cn(-c2ncc(F)cc2F)c2nc(N3C[C@@H](O)CC3=O)ccc2c1=O` [Example 102, 1-(3,5-Difluoropyridin-2-yl)-N-(3-fluorobicyclo[1.1.1]pent-1-yl)-7-[(4S)-4-hydroxy-2-oxopyrrolidin-1-yl]-4-oxo-1,4-dihydro-1,8-naphthyridine-3-carboxamide], the EC50 is reported as 1.06 µM and the Emax (CHO-DUKX-M2-GIRK cells) is reported as 89%.
`O=C(NC(c1ccccc1Cl)C(F)(F)F)c1cn(-c2ncc(F)cc2F)c2nc(N3C[C@@H](O)CC3=O)ccc2c1=O` (single isomer, unassigned) [Example 6] was tested, and the EC50 was 0.014 µM and the Emax (CHO-DUKX-M2-GIRK cells) was 95%.
Work on `CC1C(=O)N(c2ccc3c(=O)c(C(=O)N[C@@H](C4CC4)C(F)(F)F)cn(-c4ncc(F)cc4F)c3n2)CC1O` (single isomer, unassigned) [Example 105] yielded an EC50 of 0.098 µM and an Emax (CHO-DUKX-M2-GIRK cells) of 100%.
